Here are results for one compound from ChEMBL document CHEMBL5728099, “Thienopyridines and benzothiophenes useful as IRAK4 inhibitors” (2020).

A word on the IC50: it is the midpoint of a concentration-inhibition curve.

The target of the test is T1, Interleukin-1 receptor-associated kinase 4 (Homo sapiens, UniProt Q9NWZ3).
T1 sequence (Q9NWZ3 whole entry): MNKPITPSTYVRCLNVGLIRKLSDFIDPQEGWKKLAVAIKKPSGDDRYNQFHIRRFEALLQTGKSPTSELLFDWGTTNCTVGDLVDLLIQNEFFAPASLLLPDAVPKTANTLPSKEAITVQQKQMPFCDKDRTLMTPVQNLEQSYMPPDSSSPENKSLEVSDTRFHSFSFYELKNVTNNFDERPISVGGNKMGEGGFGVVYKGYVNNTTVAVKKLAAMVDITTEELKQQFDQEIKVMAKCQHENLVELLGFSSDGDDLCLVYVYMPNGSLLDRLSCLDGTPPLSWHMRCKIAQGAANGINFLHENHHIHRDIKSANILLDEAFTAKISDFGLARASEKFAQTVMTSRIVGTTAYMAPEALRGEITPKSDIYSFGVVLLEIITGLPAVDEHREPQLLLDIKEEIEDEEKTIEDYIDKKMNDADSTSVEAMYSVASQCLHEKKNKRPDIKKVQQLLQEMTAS
The test can be described thus: Inhibition Assay: The assays were performed in U-bottom 384-well plates. The final assay volume was 30 μL prepared from 15 μL additions of enzyme and substrates (fluoresceinated peptide and ATP) and test compounds in assay buffer (20 mM HEPES pH 7.2, 10 mM MgCl2, 0.015% Brij 35 and 4 mM DTT). The reaction was initiated by the combination of IRAK4 with substrates and test compounds. The reaction mixture was incubated at room temperature for 60 min. and terminated by adding 45 μL of 35 mM EDTA to each sample. The reaction mixture was analyzed on the Caliper LABCHIP® 3000 (Caliper, Hopkinton, Mass.) by electrophoretic separation of the fluorescent substrate and phosphorylated product. Inhibition data were calculated by comparison to no enzyme control reactions for 100% inhibition and vehicle-only reactions for 0% inhibition. The final concentrations of reagents in the assays are ATP, 500 μM; FL-IPTSPITTTYFFFKKK peptide 1.5 μM; IRAK4, 0.6 nM; and DMSO, 1.6%.

Take `CC[C@H]1[C@@H](COc2csc3cc(C(N)=O)c(OC)nc23)NC(=O)C1(C)C`: the half-maximal inhibitory concentration (IC50) was 595 nM.
